Source: ChEMBL document CHEMBL5614390, “Novel EGFR inhibitors against resistant L858R/T790M/C797S mutant for intervention of non-small cell lung cancer” (Eur J Med Chem, 2024)

Key:
[1] = system: PC-9; assay: cells; settings: Homo sapiens, PC-9, 72 h
Description: Cytotoxicity against human PC-9 cells expressing EGFR L858R/T790M/C797S mutant assessed as inhibition of cell proliferation incubated for 72 hrs by CCK8 assay

[2] = system: PC-9; assay: cells; settings: Homo sapiens, PC-9, 72 h; remark: listed apart in the source
Description: Cytotoxicity against human PC-9 cells expressing EGFR Del19/T790M/C797S mutant assessed as inhibition of cell proliferation incubated for 72 hrs by CCK8 assay

[3] = system: NCI-H1975; assay: cells; settings: Homo sapiens, NCI-H1975, 72 h
Description: Cytotoxicity against human NCI-H1975 cells expressing EGFR L858R/T790M mutant assessed as inhibition of cell proliferation incubated for 72 hrs by CCK8 assay

[4] = system: PC-9; assay: cells; settings: Homo sapiens, PC-9, 72 h; remark: listed apart in the source
Description: Cytotoxicity against human PC-9 cells expressing EGFR Del19 mutant assessed as inhibition of cell proliferation incubated for 72 hrs by CCK8 assay

[5] = system: HCC827; assay: cells; settings: Homo sapiens, HCC827, 72 h
Description: Cytotoxicity against human HCC827 cells expressing EGFR Del19 mutant assessed as inhibition of cell proliferation incubated for 72 hrs by CCK8 assay

[6] = system: A-431; assay: cells; settings: Homo sapiens, A-431, 72 h
Description: Cytotoxicity against human A-431 cells assessed as inhibition of cell proliferation incubated for 72 hrs by CCK8 assay

[7] = system: MCF7; assay: cells; settings: Homo sapiens, MCF7, 72 h
Description: Cytotoxicity against human MCF7 cells assessed as inhibition of cell proliferation incubated for 72 hrs by CCK8 assay

[8] = system: PC-9; assay: Induction of apoptosis in human PC-9 cells expressing EGFR L858R/T790M/C797S mutant assessed as viable cells at 1 uM incubated for 48 hrs by Annexin V-FITC/PI staining based flow cytometric analysis (reference value: 98.9 %); type: functional
[9] = system: PC-9; assay: Induction of apoptosis in human PC-9 cells expressing EGFR L858R/T790M/C797S mutant assessed as early apoptotic cells at 1 uM incubated for 48 hrs by Annexin V-FITC/PI staining based flow cytometric analysis (reference value: 0.210 %); type: functional
[10] = system: PC-9; assay: Induction of apoptosis in human PC-9 cells expressing EGFR L858R/T790M/C797S mutant assessed as late apoptotic cells at 1 uM incubated for 48 hrs by Annexin V-FITC/PI staining based flow cytometric analysis (reference value: 0.360 %); type: functional
[11] = system: PC-9; assay: Induction of apoptosis in human PC-9 cells expressing EGFR L858R/T790M/C797S mutant assessed as necrotic cells at 1 uM incubated for 48 hrs by Annexin V-FITC/PI staining based flow cytometric analysis (reference value: 0.540 %); type: functional
[12] = system: PC-9; assay: Induction of apoptosis in human PC-9 cells expressing EGFR Del19/T790M/C797S mutant assessed as viable cells at 1 uM incubated for 48 hrs by Annexin V-FITC/PI staining based flow cytometric analysis (reference value: 99.8 %); type: functional
[13] = system: PC-9; assay: Induction of apoptosis in human PC-9 cells expressing EGFR Del19/T790M/C797S mutant assessed as early apoptotic cells at 1 uM incubated for 48 hrs by Annexin V-FITC/PI staining based flow cytometric analysis (reference value: 0.050 %); type: functional
[14] = system: PC-9; assay: Induction of apoptosis in human PC-9 cells expressing EGFR Del19/T790M/C797S mutant assessed as late apoptotic cells at 1 uM incubated for 48 hrs by Annexin V-FITC/PI staining based flow cytometric analysis (reference value: 0.040 %); type: functional
[15] = system: PC-9; assay: Induction of apoptosis in human PC-9 cells expressing EGFR Del19/T790M/C797S mutant assessed as necrotic cells at 1 uM incubated for 48 hrs by Annexin V-FITC/PI staining based flow cytometric analysis (reference value: 0.090 %); type: functional
[16] = system: PC-9; assay: Antitumor activity against human PC-9 cells expressing EGFR L858R/T790M/C797S mutant xenografted in BALB/c nude mouse assessed as tumor growth inhibition at 40 mg/kg, po administered for 18 days relative to control; type: functional; settings: time 18 day

| SMILES | IC50 [1] | IC50 [2] | IC50 [3] | IC50 [4] | IC50 [5] | IC50 [6] | IC50 [7] | Activity [8] | Activity [9] | Activity [10] | Activity [11] | Activity [12] | Activity [13] | Activity [14] | Activity [15] | TGI [16] |
| --- | --- | --- | --- | --- | --- | --- | --- | --- | --- | --- | --- | --- | --- | --- | --- | --- |
| C=CC(=O)Nc1cc(Nc2ncc(F)c(-c3ccc4cc(C(=O)NC)n(C(C)C)c4c3)n2)ccc1N1CCN(C(C)C)CC1 | 138 nM | 258 nM | 150 nM | 147 nM | 103 nM | 46 nM | 459 nM |  |  |  |  |  |  |  |  |  |
| C=CC(=O)Nc1cc(Nc2nccc(-c3cn(C)c4ccccc34)n2)c(OC)cc1N(C)CCN(C)C [OSIMERTINIB] |  | 2790 nM |  | 15 nM | 16 nM |  | 3520 nM | 89% | 4.73% | 5.56% | 0.67% | 85.5% | 3.39% | 6.39% | 4.73% | 30.9% |
| C=CC(=O)Nc1cc(Nc2ncc(F)c(-c3ccc4cc(C(=O)NC)n(C(C)C)c4c3)n2)c(OC)cc1N1CCN(C)CC1 | 1110 nM | 2190 nM | 1160 nM | 2090 nM | 1120 nM | > 10000 nM | > 10000 nM |  |  |  |  |  |  |  |  |  |
| C=CC(=O)Nc1cc(Nc2ncc(F)c(-c3ccc4cc(C(=O)NC)n(C(C)C)c4c3)n2)c(OC)cc1N1CCN(C(C)C)CC1 | 200 nM | 2280 nM | 474 nM | 1030 nM | 2180 nM | 4920 nM | 3840 nM |  |  |  |  |  |  |  |  |  |
| C=CC(=O)Nc1cc(Nc2ncc(F)c(-c3ccc4cc(C(=O)N(C)C)n(C(C)C)c4c3)n2)ccc1N1CCN(C(C)C)CC1 | 380 nM | 251 nM | 468 nM | 122 nM | 692 nM | 441 nM | 875 nM |  |  |  |  |  |  |  |  |  |
| C=CC(=O)Nc1cc(Nc2ncc(F)c(-c3ccc4cc(C(=O)N(C)C)n(C(C)C)c4c3)n2)ccc1N1CCN(C)CC1 | 2240 nM | 1960 nM | 1180 nM | 1980 nM | 1290 nM | 4130 nM | 4040 nM |  |  |  |  |  |  |  |  |  |
| C=CC(=O)Nc1cc(Nc2ncc(F)c(-c3ccc4cc(C(=O)NC)n(C(C)C)c4c3)n2)ccc1N(C)CCN(C)C | 74 nM | 48 nM | 44 nM | 53 nM | 385 nM | 1020 nM | 159 nM |  |  |  |  |  |  |  |  |  |
